Test results taken from patent publication US4696918A, “Solubilized platinum compound” (Johnson Matthey Public Limited Company, priority 1984, dated 1987).
Like-named read-outs stand apart in the source and are kept apart here.

Assays:
[1] = distribution of platinum in blood, urine and faeces following intravenous administration; type: in vivo, male Wistar albino rats; conditions: rat, 24 hours
in vivo haematotoxicity = experiment: in vivo haematotoxicity; set-up: species or system male Wistar albino rats; conditions: rat; for haematotoxicity and nephrotoxicity testing, comparison of the two compounds: blood samples days 1, 4, 8, 12 and 16 after injection, haematocrit, white blood cell counts, plasma urea nitrogen
Source text: (§1) The kidneys were also subjected to histological examination.

kidneys = experiment: in vivo nephrotoxicity; set-up: species or system male Wistar albino rats; conditions: rat; for histological examination of the kidneys / plasma urea nitrogen levels / urine protein levels (proteinuria): in vivo; for gross nephrotoxicity: from plasma urea nitrogen
Source text: as §1

[2] = association with α-cyclodextrin by microcalorimetry; type: physicochemical
Source text: (§2) We have studied the association constant for the preferred compound according to the invention by a micro-calorimetric method which involves measuring the heat evolved when solutions of the platinum(II) compound and α-cyclodextrin are mixed and also by using a ^1 H n.m.r. spectroscopic approach.
For the microcalorimetry experiments, a solution of the platinum complex (0.02366 mol kg^-1) in water was mixed with a range of aqueous solutions of α-cyclodextrin (ca. 0.01-0.1 mol kg^-1) in a batch calorimeter operating at 25° C. A series of preliminary experiments was performed so that corrections for the contributions arising from the enthalpy of dilution of the two solutes could be made. The expression linking the enthalpy change per mol (ΔH) of Pt(NH3)2.CBDCAto the final molalities of both this guest (G) and the α-cyclodextrin host (H) and to the equilibrium constant (Ka) and the standard enthalpy change (ΔH⊖) for the equilibrium,
H+G.revreaction.H·G,
Ka =ΔH·ΔH⊖ /(ΔH⊖
[H]-ΔH[G])(ΔH⊖ -ΔH) (1)
In the Figure, the filled circles denote experimental points and the line denotes the analysis obtained using Equation (1). It is seen that good correlation is obtained between theory and practice.

[3] = association with α-cyclodextrin by 1H n.m.r. spectroscopy; type: physicochemical; conditions: D2O, ca. 22° C.; corrected chemical shifts H-3 and H-a vs fraction bound
Procedure: as §2
For the spectroscopic approach, two types of spectroscopic investigations were performed in D2 O at ca. 22° C. using a Bruker AM250FT Spectrometer. In the first series of experiments, equimolar solutions of Pt(NH3)2.CBDCA and α-cyclodextrin were studied at various dilutions and, in the second series of experiments, the concentration of the platinum complex was kept constant and the concentration of the α-cyclodextrin was varied. When processing the chemical shift data, corrections were made to allow for the tendency of α-cyclodextrin to self-associate. […] The latter was calculated from the equilibrium constant, corrected to the aquamolal scale, obtained from the microcalorimetric measurements.

[4] = cited from earlier work

Compound | faecal levels, Pt excretion [1] | urine levels, Pt excretion [1] | haematotoxicity and nephrotoxicity testing, comparison of the two compounds (in vivo haematotoxicity) | anaemic and myelosuppressive response (in vivo haematotoxicity; inclusion compound compared with Pt(NH3)2.CBDCA alone) | histological examination of the kidneys (kidneys) | plasma urea nitrogen levels (kidneys) | urine protein levels (proteinuria) (kidneys) | gross nephrotoxicity (kidneys) | aqueous solubility (attainable concentration) (aqueous α-cyclodextrin solution) | standard entropy change ΔS⊖ ([2]; association with α-cyclodextrin in water, recorded in FIG. 2) | tendency to associate with α-cyclodextrin ([2]; in water) | standard enthalpy change ΔH⊖ ([2]; in water, 25° C., association with α-cyclodextrin) | association (equilibrium) constant Ka ([2]; in water, 25° C., α-cyclodextrin host) | agreement between n.m.r. and thermodynamic results [3] | aqueous solubility (attainable concentration) (water) | general toxicity ([4]; compared with certain other platinum-containing compounds, particularly cisplatin) | kidney toxicity ([4]; relative to cisplatin)
inclusion compound of 1,1-cyclobutanedicarboxylatediammineplatinum(II) and α-cyclodextrin | 4-5% | 65-67% | Results as between the two test compounds were similar | slightly less anaemic and myelosuppressive response | Some nuclear enlargement of the kidneys | remained constant throughout the study period | no obvious proteinuria was observed | no gross nephtrotoxicity | approximately 200 mM | – | – | – | – | – | – | – | –
N.N.O=C([O-])C1(C(=O)[O-])CCC1.[Pt+4] [Pt(NH3)2.CBDCA, 1,1-cyclobutanedicarboxylatediammineplatinum(II)] | 4-5% | 65-67% | Results as between the two test compounds were similar | – | Some nuclear enlargement of the kidneys | remained constant throughout the study period | no obvious proteinuria was observed | no gross nephtrotoxicity | – | -27 J K^-1 mol^-1 | very marked tendency to associate with α-cyclodextrin in water | -5.02 ± 0.478 kcal/mol | 199 ± 10 kg/mol | excellent agreement between the n.m.r. and thermodynamic results | 50 mM | relatively non-toxic | reduced dramatically
